US20100261699A1, “N-PYRAZOLE-2-PYRIDINE CARBOXAMIDE DERIVATIVE” (Banyu Pharmaceutical Co., Ltd., priority 2007, published 2010)

Biological target: T1, recombinant human liver GK (Homo sapiens, UniProt P35557)
T1 construct: made in house; host or cells: E. coli
T1 sequence (P35557 1-466 isoform P35557-2): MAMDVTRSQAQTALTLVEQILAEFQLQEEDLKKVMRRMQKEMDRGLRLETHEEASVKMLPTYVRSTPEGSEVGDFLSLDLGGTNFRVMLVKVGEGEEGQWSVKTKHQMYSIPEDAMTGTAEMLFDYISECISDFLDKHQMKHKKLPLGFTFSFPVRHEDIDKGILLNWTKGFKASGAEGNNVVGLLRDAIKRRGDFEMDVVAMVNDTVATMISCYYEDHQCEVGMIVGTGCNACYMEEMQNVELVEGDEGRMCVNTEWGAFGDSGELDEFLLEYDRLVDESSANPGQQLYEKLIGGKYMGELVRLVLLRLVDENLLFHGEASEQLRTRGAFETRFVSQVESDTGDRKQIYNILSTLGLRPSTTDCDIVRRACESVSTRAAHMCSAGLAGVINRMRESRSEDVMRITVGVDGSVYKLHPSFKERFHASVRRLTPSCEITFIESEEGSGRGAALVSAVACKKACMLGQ
Test: Glucokinase-activating effect (Thio-NADH production via G6PDH-coupled assay)
Assay type: biochemical
Conditions: final glucose concentration 2.5 mM, 30° C.; for Emax: OD level of DMSO control taken as 100%
Protocol: The excellent glucokinase-activating effect of the compound represented by the Formula (I) can be determined by a method described in references (e.g., Diabetes, Vol. 45, pp. 1671-1677, 1996, etc.) or by a method based on the same.
The glucokinase activity is determined not by directly measuring glucose-6-phosphate, but by measuring the level of Thio-NADH produced when a reporter enzyme, glucose-6-phosphate dehydrogenase, produces phosphogluconolactone from glucose-6-phosphate.
A recombinant human liver GK used in this assay was expressed in E. coli as a FLAG fusion protein, and then purified by ANTIFLAG M2 AFFIMTY GEL (Sigma).
The assay was carried out using a flat-bottom 96-well plate at 30° C. First, 69 μl of assay buffer (25 mM Hepes Buffer:pH=7.2, 2 mM MgCl2, 1 mM ATP, 0.5 mM TNAD, 1 mM dithiothreitol) was dispensed, and 1 μl of DMSO solution of the compound or DMSO as a control was added thereto. Subsequently, 20 μl of enzyme mixture (FLAG-GK, 20 U/ml G6PDH) that had been cooled in ice was dispensed, and 10 μl of 25 mM glucose, a substrate, was added thereto to initiate reaction (final glucose concentration=2.5 mM).
After the start of the reaction, an increase in the absorbance at 405 nm was measured for 12 minutes at 30 second intervals, and the increment for the first 5 minutes was used for evaluation of the compound. FLAG-GK was added so that the increment of absorbance in 5 minutes in the presence of 1% DMSO was from 0.04 to 0.06.
Taking the OD level of the DMSO control as 100%, the OD level of the test compound at different concentrations was determined From the OD level at each concentration, Emax (%) and EC50 (μM) were calculated and used as an index of the GK-activating ability of the compound.

SMILES | Emax | EC50
CCN1CC(Oc2ccc(Sc3ccc(Sc4nncn4C)nc3C(=O)Nc3ccn(C)n3)cc2)C1 [Example 5] | – | 120 nM
CC(C)N1CC(Oc2ccc(Sc3ccc(Sc4nncn4C)nc3C(=O)Nc3ccn(C)n3)cc2)C1 [Example 6] | – | 150 nM
CN(C)CCOc1ccc(Sc2ccc(Sc3nncn3C)nc2C(=O)Nc2ccn(C)n2)cn1 [Example 9] | 880% | 180 nM
CCN(CC)CCOc1ccc(Sc2ccc(Sc3nncn3C)nc2C(=O)Nc2ccn(C)n2)cc1 [Example 2] | – | 200 nM
CN(C)CCOc1ccc(Sc2ccc(Sc3nncn3C)nc2C(=O)Nc2ccn(C)n2)cc1 [Example 1, 3-({4-[2-(dimethylamino)ethoxy]phenyl}thio)-N-(1-methyl-1H-pyrazol-3-yl)-6-[(4-methyl-4H-1,2,4-triazol-3-yl)thio]pyridine-2-carboxamide] | 890% | 120 nM

Now those with a lower EC50, led by results:

Emax | EC50 | SMILES
960% | 80 nM | CC(C)N1CC(COc2ccc(Sc3ccc(Sc4nncn4C)nc3C(=O)Nc3ccn(C)n3)cc2)C1 [Example 8, 3-({4-[(1-isopropylazetidin-3-yl)methoxy]phenyl}thio)-N-(1-methyl-1H-pyrazol-3-yl)-6-[(4-methyl-4H-1,2,4-triazol-3-yl)thio]pyridine-2-carboxamide]
– | 80 nM | Cn1ccc(NC(=O)c2nc(Sc3nncn3C)ccc2Sc2ccc(OCCN3CCCC3)cc2)n1 [Example 3]
– | 70 nM | CN1CC(Oc2ccc(Sc3ccc(Sc4nncn4C)nc3C(=O)Nc3ccn(C)n3)cc2)C1 [Example 4, 3-({4-[(1-methylazetidin-3-yl)oxy]phenyl}thio)-N-(1-methyl-1H-pyrazol-3-yl)-6-[(4-methyl-4H-1,2,4-triazol-3-yl)thio]pyridine-2-carboxamide]
930% | 60 nM | CCN1CC(COc2ccc(Sc3ccc(Sc4nncn4C)nc3C(=O)Nc3ccn(C)n3)cc2)C1 [Example 7, 3-({4-[(1-ethylazetidin-3-yl)methoxy]phenyl}thio)-N-(1-methyl-1H-pyrazol-3-yl)-6-[(4-methyl-4H-1,2,4-triazol-3-yl)thio]pyridine-2-carboxamide]
